Reference: patent publication US20140179726A1, “GUT MICROFLORA AS BIOMARKERS FOR THE PROGNOSIS OF CIRRHOSIS AND BRAIN DYSFUNCTION” (priority 2011, published 2014)
Values joined by “and” are separate entries in the source; they are usually repeats but may differ in a detail not shown here. Equal values may be shown once.

What was measured:
[1] = test system: cirrhotic patients with HE; assay: Cognitive performance, HE patients on rifaximin vs only on lactulose (Example 2); assay type: in vivo, human
Description: Patients with cirrhosis with or without HE were included for a one-time visit. We excluded patients with a current infection (defined by elevated white blood cell (WBC) count, clinical suspicion or fever), variceal bleeding within the last 4 weeks, on gut-absorbable antibiotics, or had alcohol or illicit drug intake within 3 months (checked by drug and alcohol screens). […] Patients in the “HE” group had suffered at least one HE episode within the last 3 months and were currently controlled on lactulose alone or lactulose with rifaximin.
During the visit, the subjects underwent a physical examination and measurement of body mass index (BMI), detailed analysis of medical records including current medications, a detailed dietary recall and collection of stool and blood samples. All subjects underwent a mini-mental status exam and only those scoring above 25 were included in the full study (14). Subsequently a recommended cognitive battery consisting of the following tests was administered; (a) Psychometric hepatic encephalopathy score (PHES), (b) block design test (subjects are required to replicate designs with given blocks in a timed manner) and (c) Inhibitory control test [ICT: Subjects are instructed to respond to alternating presentations of X and Y on the screen (targets) while inhibiting response when X and Y are not alternating (lures)] (5, 41). The PHES consists of number connection test-A/B (subjects are asked to “join the dots” between numbers or numbers and alphabets in a timed fashion), digit symbol (subjects are required to copy corresponding figures from a given list within 2 minutes), line drawing (time) and (errors): subjects are required to trace a line between two parallel lines and balance between speed and accuracy. Time required and the number of times the subject's line strays beyond the marked lines (errors) are recorded] and serial dotting (subjects are asked to dot the center of a group of blank circles)]. The PHES is a validated battery for cognitive dysfunction in cirrhosis and tests for psychomotor speed, visuo-motor coordination, attention and set-shifting(32). Block design tests for visuo-motor coordination. A high score on block, digit symbol and ICT targets and a low score on the rest indicate good performance.
Statistical analysis: Cirrhotics with HE were compared to those without HE with respect to BMI, inflammatory markers, cognitive performance and microbiome constituents. Unpaired t-tests were used to compare demographics, cognitive tests and inflammatory markers. Since the microbiome constituents tend to be sparse and non-parametrically distributed, we used Metastats to compare microbiome between stool and mucosa of patients with and without HE (42). Metastats performs statistical analysis (to investigate metagenomic differences) along with biomarker discovery (to evaluate specific features underlying these differences) based on repeated t statistics and Fisher's tests on random permutations (34). We also performed Metastats analysis between the mucosal microbiome compared to the stool microbiome in patients with HE and without HE and those in HE on or not on rifaximin. Principal Component Analysis (PCO) on the abundance tables and weighted and unweighted UNIFRAC analysis using the QIIME pipeline were also performed (22, 25). Subsequently, we analyzed the correlations between MELD score, BMI, inflammatory markers, cognitive tests and microbiome constituents using a correlation network analysis obtained through a customized statistical script in R (7) using a P-value cutoff of <0.05 and an R value >0.5 to identify the most significant relationships (4, 16).

[2] = test system: stool microflora; assay: Prospective study after lactulose withdrawal: stool microbiome on lactulose and 14 days off; assay type: in vivo, human
Experimental: Prospective study: A selected group of seven cirrhotic patients in the HE group currently only on lactulose (who were also included in the cross-sectional study) were systematically withdrawn from therapy. Their diet was controlled over the study period. Their stool microflora was analyzed while on lactulose and then 14 days off of lactulose therapy. Day 14 was chosen since prior culture-based studies have shown a change in fecal flora after lactulose initiation within that time frame (31).
Interrogation of the Microbiome: Stool was collected and DNA extracted for microbiome analysis within 24 hours of collection from patients and controls using published techniques (29). We first routinely use Length Heterogeneity PCR (LH-PCR) fingerprinting of the 16S rRNA to rapidly survey our samples and standardize the community amplification. We then interrogated the microbial taxa associated with the gut fecal microbiome using Multitag Pyrosequencing (MTPS). This technique allows the rapid sequencing of multiple samples at one time yielding thousands of sequence reads per sample (12).
MTPS: We employed the MTPS process to characterize the microbiome from the fecal samples. Specifically, we have generated a set of 96 emulsion PCR fusion primers that contain the 454 emulsion PCR linkers on the 27F and 355R primers and a different 8 base “barcode” between the A adapter and 27F primer. Thus, each fecal sample was amplified with unique bar-coded forward 16S rRNA primers and then up to 96 samples were pooled and subjected to emulsion PCR and pyrosequenced using a GS-FLX pyrosequencer (Roche). Data from each pooled sample were “deconvoluted” by sorting the sequences into bins based on the barcodes using custom PERL scripts. Thus, we were able to normalize each sample by the total number of reads from each barcode. We have noted that ligating tagged primers to PCR amplicons distorts the abundances of the communities and thus it is critical to incorporate the tags during the original amplification step (12). Several groups have employed various barcoding strategies to analyze multiple samples and this strategy is now well accepted (38).
RDP10 Analysis: We identified the taxa present in each sample using the Bayesian analysis tool in Version 10 of the Ribosomal Database Project (RDP10). The abundances of the bacterial identifications were then normalized using a custom PERL script and taxa present at >1% of the community were tabulated. We chose this cutoff because of our a priori assumption that taxa present in <1% of the community vary between individuals and have minimal contribution to the functionality of that community and 2,000 reads per sample will only reliably identify community components that are greater than 1% in abundance (13).
The cirrhosis group was divided into those with and without HE and were compared. Data from the significant variables between HE and non-HE groups were combined in a MANOVA model. Within HE patients, comparison was made between those on lactulose alone to those with lactulose and rifaximin. Microbiome abundance comparisons between groups were made at a family level using non-parametric tests. A comparison was performed between patients on and withdrawn off of lactulose therapy using the Wilcoxon matched-pair signed rank tests. All values are presented as mean±standard deviation unless mentioned otherwise.

[3] = stool, baseline on lactulose, seven patients

SMILES: OC[C@H]1O[C@@H](O[C@@H]2[C@@H](CO)OC(O)(CO)[C@H]2O)[C@H](O)[C@@H](O)[C@H]1O (mixture of isomers) [lactulose]
- block design ([1]; high = good): 19.8 score
- digit symbol ([1]; high = good): 38 score
- targets ([1]; high = good): 90%
- line tracing errors ([1]; high = poor): 44.9
- line tracing time ([1]; high = poor): 127.3
- lures ([1]; high = poor): 16.9 responses
- number connection-A ([1]; high = poor): 52.25 s
- number connection-B ([1]; high = poor): 145.8 s
- serial dotting ([1]; high = poor): 84.0 s
- clinically recurrent HE at day 14 ([2]; after systematic withdrawal of lactulose, seven patients): None of the patients had clinically recurrent HE
- abundance of Faecalibacterium spp. post-withdrawal ([2]; stool, 14 days off lactulose, p=0.026 vs on lactulose): 1%
- abundance of Veillonella spp. post-withdrawal ([2]; stool, 14 days off lactulose, trend, p=0.07): 0%
- abundance of Alcaligenaceae [2, 3]: 2.6%
- abundance of Alistipes [2, 3]: 3%
- abundance of Bacteroides [2, 3]: 35%
- abundance of Clostridium spp. [2, 3]: < 1%
- abundance of Dialister [2, 3]: 2%
- abundance of Faecalibacterium [2, 3]: 7% and 6%
- abundance of Hafnia [2, 3]: 2%
- abundance of Hallella [2, 3]: 4%
- abundance of Lachnospira [2, 3]: 5%
- abundance of Lactobacillus spp. [2, 3]: < 1%
- abundance of Parabacteroides spp. [2, 3]: 2%
- abundance of Porphyromonadaceae [2, 3]: 1.7%
- abundance of Prevotella [2, 3]: 13%
- abundance of Roseburia [2, 3]: 3%
- abundance of Ruminococcus spp. [2, 3]: < 1%
- abundance of Shigella spp. [2, 3]: < 1%
- abundance of Streptococcus spp. [2, 3]: < 1%
- abundance of Succinispira spp. [2, 3]: 2%
- abundance of Sutterella spp. [2, 3]: 1%
- abundance of Veillonella [2, 3]: 2%
- other relative abundance change after lactulose withdrawal ([2]; stool, day 14, including Porphyromonadaceae and Alcaligenaceae): No other significant relative abundance change
